Results on two compounds are retold here after patent publication US20230036060A1, “DUAL-CONTROLLED DRUG AND PHOTOACTIVATABLE SYSTEM FOR SPATIOTEMPORAL CONTROL OF CELL THERAPY” (THE REGENTS OF THE UNIVERSITY OF CALIFORNIA, priority 2019, published 2023).

One series has as its target T1, ERT2-mCherry (Homo sapiens, UniProt P03372, G400V/L544A/M543A).
T1 construct: expressed in transfected cells; host or cells: HEK293T
T1 sequence (P03372 311-547 G400V/M543A/L544A limits assumed): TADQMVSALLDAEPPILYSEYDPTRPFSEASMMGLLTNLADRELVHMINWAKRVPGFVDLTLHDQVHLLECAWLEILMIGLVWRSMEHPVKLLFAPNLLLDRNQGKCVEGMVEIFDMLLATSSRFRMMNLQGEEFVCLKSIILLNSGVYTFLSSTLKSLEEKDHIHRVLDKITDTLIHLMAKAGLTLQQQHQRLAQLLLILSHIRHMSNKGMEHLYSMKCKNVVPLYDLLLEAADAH
Nature of the series: Time-lapse fluorescence microscopy of 4-OHT-induced nuclear translocation of ERT2-mCherry in HEK293T cells. It counts as cell-based. Conditions: 4-OHT 500 nM. On the procedure:
FIG. 2E illustrates representative time-lapse fluorescence microscopy images of HEK293T cells transiently expressing ERT2-mCherry before and after the addition of nuclear-localizing 4-OHT (500 nM) (imaged every 2 min, 100× mag., scale bar=10 μm, n=6 independently measured cells).
Tamoxifen-induced nuclear import translocation dynamics in HEK293T cells were further characterized using an ERT2-mCherry fusion protein (Fig. S1F). Using time-lapse fluorescence microscopy, we discovered that nuclear translocation driven by 4-OHT (500 nM) occurred on the order of hours. ERT2-mCherry protein was only clearly nuclear-localized (with a nuclear-to-cytosolic mean fluorescence intensity ratio≥2) after approximately three hours (FIG. 2E), highlighting an effective time window for blue light stimulation to drive robust Cre-loxP recombination in ERT2-based photoactivatable construct designs.

For series [1] the following is noted: cited from earlier work.

Take 4-hydroxytamoxifen [4-OHT]: the “time to significant 4-OHT-induced nuclear translocation of ERT2-mCh fusion protein” value at ERT2-mCherry is reported as “approximately 3 h”. The “nuclear-to-cytosolic mean fluorescence intensity ratio of ERT2-mCherry” value on ERT2-mCherry (after approximately three hours) was no less than 2.

On to `CC/C(=C(\c1ccccc1)c1ccc(OCCN(C)C)cc1)c1ccccc1` [tamoxifen], for which, in series [1], the “terminal elimination half-life (plasma concentrations)” value was 5 to 7 h.
